Target: Cannabinoid receptor 2 (Homo sapiens, UniProt P34972)
Assay: Competition Binding Assay
Protocol: To determine the affinity of CB2R-specific ligands, we used a simple competition kinetic binding assay. This approach involves the simultaneous addition of both fluorescent ligand and competitor to the CB2R preparation. 62.5 nM 8-SiR, concentration which avoid ligand depletion in this assay volume, were added simultaneously with increasing concentrations of the unlabeled compound to CB2R cell membranes (4 μg per well) in 40 μL of assay buffer in a 384-well plate incubated at room temperature with orbital mixing. The degree of fluorescent ligand bound to the receptor was assessed at equilibrium by HTRF detection. Nonspecific binding was determined as the amount of HTRF signal detected in the presence of SR144528 (1 μM) and was subtracted from total binding, to calculate specific binding for construction of IC50 curves.

Sequence of Cannabinoid receptor 2 (P34972 whole entry): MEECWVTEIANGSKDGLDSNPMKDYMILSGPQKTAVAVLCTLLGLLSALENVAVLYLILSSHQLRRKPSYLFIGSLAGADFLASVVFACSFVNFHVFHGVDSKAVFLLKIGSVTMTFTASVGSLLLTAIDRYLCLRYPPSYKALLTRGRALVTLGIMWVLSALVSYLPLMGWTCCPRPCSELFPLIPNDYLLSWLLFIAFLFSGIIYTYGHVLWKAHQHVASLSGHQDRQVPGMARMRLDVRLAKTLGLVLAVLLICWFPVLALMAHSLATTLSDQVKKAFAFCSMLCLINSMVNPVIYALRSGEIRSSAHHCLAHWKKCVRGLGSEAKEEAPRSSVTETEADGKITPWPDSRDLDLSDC

Row | Compound | Kd
1 | COc1cc(C(C)(C)CCCCCCN=[N+]=[N-])cc(OC)c1[C@H]1C=C(CNC(=O)CCCCCCNC(=O)c2ccc(=O)n(S(=O)(=O)c3cccc(C(=O)NCC4CN(CCOCCOCCOCCOCCNc5ccc([N+](=O)[O-])c6nonc56)N=N4)c3)c2)[C@H]2C[C@@H]1C2(C)C (some centres not stated) [US20250325711, Example 4] | 4.5 nM
2 | COc1cc(C(C)(C)CCCCCCN=[N+]=[N-])cc(OC)c1[C@H]1C=C(CNC(=O)CCCCCCNC(=O)c2ccc(=O)n(S(=O)(=O)c3cccc(C(=O)NCC4CN(CCOCCNc5ccc([N+](=O)[O-])c6nonc56)N=N4)c3)c2)[C@H]2C[C@@H]1C2(C)C (some centres not stated) [US20250325711, Example 2] | 22.9 nM
3 | CCCCCCC(C)(C)c1cc(OC)c([C@H]2C=C(CNC(=O)CCCCCCNC(=O)c3ccc(=O)n(S(=O)(=O)c4cccc(C(=O)NCC5CN(CCOCCNc6ccc([N+](=O)[O-])c7nonc67)N=N5)c4)c3)[C@H]3C[C@@H]2C3(C)C)c(OC)c1 (some centres not stated) [US20250325711, Example 3] | 24.2 nM
4 | COc1cc(C(C)(C)CCCCCCN=[N+]=[N-])cc(OC)c1[C@H]1C=C(CNC(=O)CCCCCCCCNC(=O)c2ccc(=O)n(S(=O)(=O)c3cccc(C(=O)NCC4CN(CCOCCNc5ccc([N+](=O)[O-])c6nonc56)N=N4)c3)c2)[C@H]2C[C@@H]1C2(C)C (some centres not stated) [US20250325711, Example 7] | 8.9 nM
5 | COc1cc(C(C)(C)CCCCCCN=[N+]=[N-])cc(OC)c1[C@H]1C=C(CNC(=O)CCCCCCNC(=O)c2ccc(S(=O)(=O)N(CC#N)C(=O)CCC3CN(CCOCCNc4ccc([N+](=O)[O-])c5nonc45)N=N3)cc2)[C@H]2C[C@@H]1C2(C)C (some centres not stated) [US20250325711, Example 11] | 152 nM
6 | CCN(CC)c1ccc2c(c1)OC(=O)C(/C=C/c1ccc(S(=O)(=O)[O-])c[n+]1CCCCCC(=O)NCCOCCN1CC(CNC(=O)C3=CC(S(=O)(=O)N4CC(C(=O)NCCCCCCC(=O)NCC5=C[C@H](c6c(OC)cc(C(C)(C)CCCCCCN=[N+]=[N-])cc6OC)[C@@H]6C[C@H]5C6(C)C)C=CC4=O)CC=C3)N=N1)C2 (some centres not stated) [US20250325711, Example 5] | 59 nM
7 | COc1cc(C(C)(C)CCCCCCN=[N+]=[N-])cc(OC)c1[C@H]1C=C(CNC(=O)CCCCNC(=O)c2ccc(=O)n(S(=O)(=O)c3cccc(C(=O)NCCC4CN(CCOCCNc5ccc([N+](=O)[O-])c6nonc56)N=N4)c3)c2)[C@H]2C[C@@H]1C2(C)C (some centres not stated) [US20250325711, Example 1] | 9.1 nM
